Laboratory results reported in PubChem BioAssay (NCI).
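Assay format: 96-well plates, 48-hour exposure. At the TGI there is no net growth.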

Experiments:
Experiment in all cases: DTP human tumour cell line panel, 48 h
786-0 renal = test system: 786-0 renal
A498 renal = test system: A498 renal
A549 NSCLC = test system: A549 NSCLC
ACHN renal = test system: ACHN renal
BT-549 breast = test system: BT-549 breast
CAKI-1 renal = test system: CAKI-1 renal
CCRF-CEM leukemia = test system: CCRF-CEM leukemia
COLO 205 colon = test system: COLO 205 colon
DU-145 prostate = test system: DU-145 prostate
EKVX NSCLC = test system: EKVX NSCLC
HCC-2998 colon = test system: HCC-2998 colon
HCT-116 colon = test system: HCT-116 colon
HCT-15 colon = test system: HCT-15 colon
HL-60(TB) leukemia = test system: HL-60(TB) leukemia
HOP-62 NSCLC = test system: HOP-62 NSCLC
HOP-92 NSCLC = test system: HOP-92 NSCLC
HS 578T breast = test system: HS 578T breast
HT29 colon = test system: HT29 colon
IGROV1 ovarian = test system: IGROV1 ovarian
KM12 colon = test system: KM12 colon
LOX IMVI melanoma = test system: LOX IMVI melanoma
M14 melanoma = test system: M14 melanoma
MALME-3M melanoma = test system: MALME-3M melanoma
MCF7 breast = test system: MCF7 breast
MDA-MB-231 breast = test system: MDA-MB-231 breast
MDA-MB-435 = test system: MDA-MB-435
MDA-N = test system: MDA-N
MOLT-4 leukemia = test system: MOLT-4 leukemia
NCI-H226 lung = test system: NCI-H226 lung
NCI-H23 lung = test system: NCI-H23 lung
NCI-H460 lung = test system: NCI-H460 lung
NCI-H522 lung = test system: NCI-H522 lung
NCI/ADR-RES ovarian = test system: NCI/ADR-RES ovarian
OVCAR-3 ovarian = test system: OVCAR-3 ovarian
OVCAR-4 ovarian = test system: OVCAR-4 ovarian
OVCAR-5 ovarian = test system: OVCAR-5 ovarian
OVCAR-8 ovarian = test system: OVCAR-8 ovarian
PC-3 prostate = test system: PC-3 prostate
RPMI-8226 leukemia = test system: RPMI-8226 leukemia
RXF 393 renal = test system: RXF 393 renal
SF-268 CNS = test system: SF-268 CNS
SF-295 CNS = test system: SF-295 CNS
SF-539 CNS = test system: SF-539 CNS
SK-MEL-2 melanoma = test system: SK-MEL-2 melanoma
SK-MEL-28 melanoma = test system: SK-MEL-28 melanoma
SK-MEL-5 melanoma = test system: SK-MEL-5 melanoma
SK-OV-3 ovarian = test system: SK-OV-3 ovarian
SN12C renal = test system: SN12C renal
SNB-75 CNS = test system: SNB-75 CNS
SW-620 colon = test system: SW-620 colon
T-47D breast = test system: T-47D breast
TK-10 renal = test system: TK-10 renal
U251 CNS = test system: U251 CNS
UACC-62 melanoma = test system: UACC-62 melanoma
UO-31 renal = test system: UO-31 renal
K-562 leukemia = test system: K-562 leukemia
SNB-19 CNS = test system: SNB-19 CNS
SR leukemia = test system: SR leukemia
UACC-257 melanoma = test system: UACC-257 melanoma

**Q.** `CCOc1ccccc1N=NC1C(=O)N(C(=O)CC(=O)Nc2ccccc2OC)N=C1C` (stereo unspecified) was tested. Which TGI (786-0 renal) did it give?
**A.** > 100 µM

**Q.** And the TGI (A498 renal)?
**A.** > 100 µM

**Q.** And the TGI (A549 NSCLC)?
**A.** > 100 µM

**Q.** What about the TGI (ACHN renal) of the same molecule?
**A.** > 100 µM

**Q.** What about the TGI (BT-549 breast) of the same molecule?
**A.** > 100 µM

**Q.** What about the TGI (CAKI-1 renal) of the same molecule?
**A.** > 100 µM

**Q.** What about the TGI (CCRF-CEM leukemia) of the same molecule?
**A.** > 100 µM

**Q.** And the TGI (COLO 205 colon)?
**A.** > 100 µM

**Q.** And the TGI (DU-145 prostate)?
**A.** > 100 µM

**Q.** What about the TGI (EKVX NSCLC) of the same molecule?
**A.** 21.8 µM

**Q.** And the TGI (HCC-2998 colon)?
**A.** > 100 µM

**Q.** What about the TGI (HCT-116 colon) of the same molecule?
**A.** > 100 µM

**Q.** And the TGI (HCT-15 colon)?
**A.** 79.8 µM

**Q.** What about the TGI (HL-60(TB) leukemia) of the same molecule?
**A.** > 100 µM

**Q.** And the TGI (HOP-62 NSCLC)?
**A.** 39.4 µM

**Q.** And the TGI (HOP-92 NSCLC)?
**A.** 56.8 µM

**Q.** What about the TGI (HS 578T breast) of the same molecule?
**A.** 12.2 µM

**Q.** And the TGI (HT29 colon)?
**A.** > 100 µM

**Q.** What about the TGI (IGROV1 ovarian) of the same molecule?
**A.** > 100 µM

**Q.** And the TGI (KM12 colon)?
**A.** > 100 µM

**Q.** And the TGI (LOX IMVI melanoma)?
**A.** > 100 µM

**Q.** What about the TGI (M14 melanoma) of the same molecule?
**A.** > 100 µM

**Q.** And the TGI (MALME-3M melanoma)?
**A.** > 100 µM

**Q.** And the TGI (MCF7 breast)?
**A.** > 100 µM

**Q.** And the TGI (MDA-MB-231 breast)?
**A.** > 100 µM

**Q.** And the TGI (MDA-MB-435)?
**A.** > 100 µM

**Q.** And the TGI (MDA-N)?
**A.** > 100 µM

**Q.** What about the TGI (MOLT-4 leukemia) of the same molecule?
**A.** > 100 µM

**Q.** And the TGI (NCI-H226 lung)?
**A.** > 100 µM

**Q.** What about the TGI (NCI-H23 lung) of the same molecule?
**A.** > 100 µM

**Q.** What about the TGI (NCI-H460 lung) of the same molecule?
**A.** > 100 µM

**Q.** And the TGI (NCI-H522 lung)?
**A.** > 100 µM

**Q.** And the TGI (NCI/ADR-RES ovarian)?
**A.** > 100 µM

**Q.** And the TGI (OVCAR-3 ovarian)?
**A.** > 100 µM

**Q.** What about the TGI (OVCAR-4 ovarian) of the same molecule?
**A.** > 100 µM

**Q.** What about the TGI (OVCAR-5 ovarian) of the same molecule?
**A.** > 100 µM

**Q.** What about the TGI (OVCAR-8 ovarian) of the same molecule?
**A.** > 100 µM

**Q.** What about the TGI (PC-3 prostate) of the same molecule?
**A.** > 100 µM

**Q.** What about the TGI (RPMI-8226 leukemia) of the same molecule?
**A.** > 100 µM

**Q.** And the TGI (RXF 393 renal)?
**A.** 81.5 µM

**Q.** And the TGI (SF-268 CNS)?
**A.** 68.8 µM

**Q.** And the TGI (SF-295 CNS)?
**A.** 55.6 µM

**Q.** What about the TGI (SF-539 CNS) of the same molecule?
**A.** > 100 µM

**Q.** What about the TGI (SK-MEL-2 melanoma) of the same molecule?
**A.** > 100 µM

**Q.** And the TGI (SK-MEL-28 melanoma)?
**A.** > 100 µM

**Q.** What about the TGI (SK-MEL-5 melanoma) of the same molecule?
**A.** > 100 µM

**Q.** And the TGI (SK-OV-3 ovarian)?
**A.** 94.3 µM

**Q.** And the TGI (SN12C renal)?
**A.** > 100 µM

**Q.** What about the TGI (SNB-75 CNS) of the same molecule?
**A.** 42.1 µM

**Q.** And the TGI (SW-620 colon)?
**A.** > 100 µM

**Q.** And the TGI (T-47D breast)?
**A.** > 100 µM

**Q.** And the TGI (TK-10 renal)?
**A.** > 100 µM

**Q.** And the TGI (U251 CNS)?
**A.** 95.6 µM

**Q.** And the TGI (UACC-62 melanoma)?
**A.** > 100 µM

**Q.** What about the TGI (UO-31 renal) of the same molecule?
**A.** 68.2 µM

**Q.** How did the TGI (A498 renal) turn out when `Cn1cnc(/C=C/C#N)c1` was run?
**A.** > 100 µM

**Q.** And the TGI (A549 NSCLC)?
**A.** > 100 µM

**Q.** What about the TGI (ACHN renal) of the same molecule?
**A.** > 100 µM

**Q.** And the TGI (BT-549 breast)?
**A.** > 100 µM

**Q.** What about the TGI (CAKI-1 renal) of the same molecule?
**A.** > 100 µM

**Q.** What about the TGI (CCRF-CEM leukemia) of the same molecule?
**A.** > 100 µM

**Q.** And the TGI (COLO 205 colon)?
**A.** > 100 µM

**Q.** And the TGI (EKVX NSCLC)?
**A.** > 100 µM

**Q.** And the TGI (HCC-2998 colon)?
**A.** > 100 µM

**Q.** And the TGI (HCT-15 colon)?
**A.** > 100 µM

**Q.** And the TGI (HOP-62 NSCLC)?
**A.** > 100 µM

**Q.** And the TGI (HOP-92 NSCLC)?
**A.** > 100 µM

**Q.** What about the TGI (HT29 colon) of the same molecule?
**A.** > 100 µM

**Q.** What about the TGI (IGROV1 ovarian) of the same molecule?
**A.** > 100 µM

**Q.** And the TGI (K-562 leukemia)?
**A.** > 100 µM

**Q.** And the TGI (KM12 colon)?
**A.** > 100 µM

**Q.** And the TGI (M14 melanoma)?
**A.** > 100 µM

**Q.** And the TGI (MALME-3M melanoma)?
**A.** > 100 µM

**Q.** What about the TGI (MCF7 breast) of the same molecule?
**A.** > 100 µM

**Q.** What about the TGI (MDA-MB-231 breast) of the same molecule?
**A.** > 100 µM

**Q.** And the TGI (MDA-MB-435)?
**A.** > 100 µM

**Q.** And the TGI (MDA-N)?
**A.** > 100 µM

**Q.** And the TGI (MOLT-4 leukemia)?
**A.** > 100 µM

**Q.** And the TGI (NCI-H226 lung)?
**A.** > 100 µM

**Q.** What about the TGI (NCI-H23 lung) of the same molecule?
**A.** > 100 µM

**Q.** What about the TGI (NCI-H460 lung) of the same molecule?
**A.** > 100 µM

**Q.** What about the TGI (NCI-H522 lung) of the same molecule?
**A.** > 100 µM

**Q.** What about the TGI (NCI/ADR-RES ovarian) of the same molecule?
**A.** > 100 µM

**Q.** And the TGI (OVCAR-3 ovarian)?
**A.** > 100 µM

**Q.** And the TGI (OVCAR-4 ovarian)?
**A.** > 100 µM

**Q.** What about the TGI (OVCAR-5 ovarian) of the same molecule?
**A.** > 100 µM

**Q.** And the TGI (OVCAR-8 ovarian)?
**A.** > 100 µM

**Q.** And the TGI (PC-3 prostate)?
**A.** > 100 µM

**Q.** And the TGI (RXF 393 renal)?
**A.** > 100 µM

**Q.** What about the TGI (SF-268 CNS) of the same molecule?
**A.** > 100 µM

**Q.** What about the TGI (SF-295 CNS) of the same molecule?
**A.** > 100 µM

**Q.** What about the TGI (SF-539 CNS) of the same molecule?
**A.** > 100 µM

**Q.** And the TGI (SK-MEL-2 melanoma)?
**A.** > 100 µM

**Q.** What about the TGI (SK-MEL-28 melanoma) of the same molecule?
**A.** > 100 µM

**Q.** And the TGI (SK-MEL-5 melanoma)?
**A.** > 100 µM

**Q.** What about the TGI (SK-OV-3 ovarian) of the same molecule?
**A.** > 100 µM

**Q.** What about the TGI (SN12C renal) of the same molecule?
**A.** > 100 µM

**Q.** What about the TGI (SNB-19 CNS) of the same molecule?
**A.** > 100 µM

**Q.** And the TGI (SNB-75 CNS)?
**A.** > 100 µM

**Q.** And the TGI (SR leukemia)?
**A.** > 100 µM

**Q.** What about the TGI (SW-620 colon) of the same molecule?
**A.** > 100 µM

**Q.** What about the TGI (TK-10 renal) of the same molecule?
**A.** > 100 µM

**Q.** And the TGI (U251 CNS)?
**A.** > 100 µM

**Q.** What about the TGI (UACC-257 melanoma) of the same molecule?
**A.** > 100 µM

**Q.** What about the TGI (UACC-62 melanoma) of the same molecule?
**A.** > 100 µM

**Q.** And the TGI (UO-31 renal)?
**A.** > 100 µM
